Reference: article PMC5841303, “In silico screening for human norovirus antivirals reveals a novel non-nucleoside inhibitor of the viral polymerase” (Scientific Reports, 2018)
Like-named read-outs stand apart in the source and are kept apart here.

Legend:
[1] = target: human norovirus Sydney 2012 RdRp (Norovirus GII.4 (Norwalk virus, human norovirus), UniProt K4L8Z7); assay: Fluorescent de novo RdRp activity assay (PicoGreen, poly(C) template); type: biochemical; details: for inhibition at 100 µM: read-out: inhibition of human norovirus RdRp activity, 100 µM
Method: The 62 compounds identified in silico were screened for inhibition of norovirus RdRp activity using an in vitro fluorescent, de novo RdRp assay. Compounds were tested at fixed concentrations of 10 µM and 100 µM, and compared to mock treated samples containing the vehicle only (0.5% DMSO [vol/vol]) (Fig. 4A,B). […] For certain compounds, significant insolubility was observed, coupled with either inherent fluorescence quenching (positive y-axis values on Fig. 4A,B) or enhancement of the fluorescence signal (negative y-axis values).
The newly synthesised compounds, including the re-prepared hit 13 and some synthesis intermediates (Table 1), were initially evaluated on norovirus Sydney 2012 RdRp activity in vitro using a quantitative fluorescent assay. Compounds were tested at a fixed concentration of 10 μM and compared to the relative activity of mock treated samples.
Recombinant calicivirus RdRps (GenBank accession numbers) norovirus GII.Pe/GII.4 Sydney 2012 (KT239579), MNV GV CW1 (DQ285629), RHDV Czech V351 (KF594473.1), and SaV GI.1 Mc114 (AY237422) were expressed and purified as described previously[60],[61]. RdRp resistance mutants were generated using the QuikChange site-directed mutagenesis kit (Agilent Technologies, Santa Clara, CA, USA) and confirmed by Sanger sequencing.
(§1) Fluorescent RdRp activity assays were carried out as previously described[14],[62]. Briefly, RdRp activity was quantified by monitoring the formation of double-stranded RNA (dsRNA) from a single stranded homopolymeric template, poly(C) (Sigma Aldrich, St Louis, MO, USA), using the fluorescent dye PicoGreen (Life Technologies, Carlsbad, CA, USA). RdRp assays were performed in 384-well plates, and each reaction mixture contained 400 ng enzyme, 45 µM GTP, 10 ng/µL poly(C) RNA, 2.5 mM MnCl2, 5 mM dithiothreitol, (DTT), 0.01% bovine serum albumin (BSA), and 0.005% Tween 20 in 20 mM Tris-HCl, pH 7.5, with a final reaction volume of 25 µL. The previous published norovirus NNI NIC02 was used as a positive control. RdRps were incubated for 10 mins at 30 °C in the presence of the test compounds or the compound vehicle DMSO (0.5% vol/vol) before addition into the reaction mixture, which was then allowed to run 15 min at 30 °C then terminated with 10 mM EDTA, followed by PicoGreen staining and dsRNA quantitation. GraphPad Prism V6.05 (La Jolla, CA, USA) was used to plot the IC50 values. In cases where fluorescent enhancement was recorded for a compound instead of inhibition, a secondary gel-based polymerase activity assay was used as a counter-screen as described below, to exclude the possibility of RdRp activity enhancement (Supplementary Fig. S1). Primed elongation activity was examined in a gel-based assay as previously described[16],[63] using the RNA template (PE44-NoV, Fig. 4D). Gels were imaged using BioRad (Hercules, CA, U.SA) Geldoc Universal Hood II, running BioRad Image Lab software, V4.1, build 16. Antagonism was calculated using Compusyn software V1.0[59]. 54 and PPNDS (4:1 ratio) were tested alone and together against norovirus Sydney 2012 RdRp.

[2] = Observed compound solubility; type: physicochemical; details: assay conditions / 100% DMSO
Method: Therefore, they were counter-screened at 100 µM in a secondary gel-based assay (Supplementary Fig. S1).
To confirm RdRp inhibition and to exclude any potential false positives from the first fluorescence RdRp assay, the eight selected compounds (Fig. 4C) were then assessed using a gel-shift enzyme activity assay.
Dose-dependent inhibitory response curves were used to establish IC50 values for the five test compounds (Table 2). […] Therefore, 42b was too insoluble to attain a reliable confidence interval in the dose-response experiments and was not examined further. However, from the other four compounds, hit 11 and its phenyl derivative 54 gave the lowest IC50 values, 3–5 fold improved compared with 13 and its derivative 42a, confirming increased RdRp inhibitory activity associated with this scaffold.

[3] = tested on: norovirus RdRp; assay: Counter-screen gel-shift RdRp assay (primed elongation of PE44-NoV template); type: biochemical, human norovirus; details: for RdRp activity enhancement in gel-based counter-screen: 100 µM; for inhibition of primed elongation activity (gel-shift): fixed concentration of 100 µM
Method: In this assay, a 32 nucleotide RNA template (PE44-NoV) is extended to 44 nucleotides in the presence of an active RdRp[16]. […] Inhibition of primed elongation of the PE44-NoV template was examined at a fixed concentration of 100 µM (Fig. 4D). In the absence of inhibition (0.5% DMSO vehicle only) the RNA template was extended to 44 nucleotides (Fig. 4D), evidenced by an upward gel shift and the appearance of the second, higher band.
as §1

[4] = tested on: MNV; assay: MNV plaque reduction assay in cell culture; type: cell-based, murine norovirus
Method: As mentioned above, the only robust cellular assay available for the evaluation of potential norovirus inhibitors is the closely related MNV assay. […] Consequently, 54 was further assessed to determine the IC50 value against MNV RdRp activity using an in vitro fluorescent assay. […] 54 was then assessed for cytotoxicity against RAW264.7 mouse macrophage cells using a cell viability assay. […] Using the plaque reduction assay, the inhibitory effects of 54 (0.5–50 µM) were examined against MNV plaque formation in cell culture. […] Compound solubility and its cell-membrane permeability properties could be further improved with structure-activity relationship enhancement of the 54 scaffold to facilitate cellular uptake, and therefore to increase antiviral efficacy. Work on this aspect is ongoing, and it will be reported in due course.
MNV-1 (CW1) culture assays were performed as previously described. Replication was examined using plaque assays[58],[64],[65]. Cytotoxicity was examined using a CellTitre Blue (Promega, Madison, WI, USA) viability assay as described previously.

[5] = 10 µM, initial screen of purchased compounds
[6] = 100 µM, initial screen of purchased compounds
[7] = read-out: inhibition of human norovirus RdRp activity, 10 µM, initial screen of purchased compounds
[8] = initial screen of purchased compounds
[9] = 10 µM, secondary screen of newly synthesised compounds

Compound: CCC(O)CC(C(=O)NNc1ccccc1)C(=O)NNc1ccccc1 (centres unmarked) [AE-562/12222591]
- inhibition of human norovirus RdRp activity [1, 5]: over 25%
- inhibition of human norovirus RdRp activity [1, 6]: over 25%
- solubility (observation) [2]: precipitated heavily in 100% DMSO

Compound: O=C(O)c1ccc2nc(-c3cccc(-c4nc5ccc(C(=O)O)cc5[nH]4)c3)[nH]c2c1 [AJ-077/33270018]
- RdRp activity enhancement in gel-based counter-screen [3]: not seen in the gel-based assay
- inhibition of human norovirus RdRp activity [1, 6]: apparent RdRp enhancement
- solubility (observation) [2]: insolubility

Compound: COc1cccc(NC(=O)Cn2nc(C(F)(F)F)cc2C2CC2)c1 [AK-968/41925073]
- inhibition of human norovirus RdRp activity [1, 5]: over 25%
- inhibition of human norovirus RdRp activity [1, 6]: over 25%
- solubility (observation) [2]: precipitated heavily in 100% DMSO

Compound: O=C(Nc1ccc(O)c(-c2nc3ccccc3o2)c1)c1cccnc1 [AP-970/12851847]
- RdRp activity enhancement in gel-based counter-screen [3]: not seen in the gel-based assay
- inhibition of human norovirus RdRp activity [1, 6]: apparent RdRp enhancement
- solubility (observation) [2]: insolubility

Compound: O=C(O)c1ccccc1-c1ccccc1C(=O)Nc1cccc(O)c1 [Compound 6]
- inhibition at 10 µM [1, 7]: > 25%
- inhibition at 100 µM [1, 8]: > 50%

Compound: CC(NC(=O)CCC(=O)Nc1ccccc1O)c1ccccc1 (centres unmarked) [Compound 7]
- inhibition at 10 µM [1, 7]: > 25%
- inhibition at 100 µM [1, 8]: > 50%

Compound: O=C(C1=C(O)C(=O)N(Cc2ccco2)C1c1cccc(O)c1)c1ccc2c(c1)OCCO2 (centres unmarked) [Compound 8]
- inhibition at 10 µM [1, 7]: > 25%
- inhibition at 100 µM [1, 8]: > 25%

Compound: COc1ccc(N2C(=O)c3ccc(C(=O)O)cc3C2=O)cc1NC(=O)c1ccccc1 [Compound 9]
- inhibition at 10 µM [1, 7]: > 25%
- inhibition at 100 µM [1, 8]: > 50%

Compound: Cc1ccc(NC(=O)CSc2n[nH]c(-c3ccccc3O)n2)c(C)c1 [Compound 10]
- inhibition at 10 µM [1, 7]: > 25%
- inhibition at 100 µM [1, 8]: > 25%

Compound: Cc1ccc(N2NC(=O)C(=Cc3ccc(-c4ccc(S(=O)(=O)Nc5nccs5)cc4)o3)C2=O)cc1 [Compound 11]
- inhibition of primed elongation activity (gel-shift) [3]: complete inhibition
- IC50 [1]: 5 µM
- inhibition at 10 µM [1, 7]: > 25%
- inhibition at 100 µM [1, 8]: > 50%
- inhibition at 10 µM ([4]; 10 µM, read-out: inhibition of MNV plaque formation): 37.1%
- cytotoxicity seen in plaque assay ([4]; 100 µM): cytotoxic

Compound: C/C(=N\NC(=O)c1ccccc1O)c1ccc(O)cc1O [Compound 12]
- inhibition at 10 µM [1, 7]: > 25%
- inhibition at 100 µM [1, 8]: > 25%

Compound: Cc1cc(C(=O)O)ccc1-c1ccc(/C=C2\SC(=O)N(CC(=O)N3CCOCC3)C2=O)o1 [Compound 13]
- inhibition of primed elongation activity (gel-shift) [3]: complete inhibition
- IC50 [1]: 15 µM
- inhibition at 10 µM [1, 7]: > 25%
- inhibition at 100 µM [1, 8]: > 50%
- inhibition at 10 µM ([1]; read-out: inhibition of norovirus Sydney 2012 RdRp activity, 10 µM, secondary screen of newly synthesised compounds): 25%
- inhibition at 100 µM ([4]; 100 µM, read-out: inhibition of MNV plaque formation): 21%

Compound: O=C1NC(=O)/C(=C/c2ccc(-c3ccccc3)o2)S1 [Compound 18a]
- inhibition of norovirus Sydney 2012 RdRp activity [1, 9]: lacked RdRp inhibitory activity

Compound: Cc1ccccc1-c1ccc(/C=C2\SC(=O)NC2=O)o1 [Compound 18c]
- inhibition of norovirus Sydney 2012 RdRp activity [1, 9]: lacked RdRp inhibitory activity
